Laboratory results reported in BindingDB's records for doi:10.1021/jm021084k (2003).

Assays:
Histamine H3 receptor = Histamine H3 receptor (Cavia porcellus, UniProt Q9JI35); assay: Potency at histamine H3 receptor subtype, was tested on guinea pig right ileum
Histamine H2 receptor = Histamine H2 receptor (Cavia porcellus, UniProt P47747); assay: Potency at histamine H2 receptor subtype, was tested on guinea pig right atrium
Histamine H1 receptor = Histamine H1 receptor (Cavia porcellus, UniProt P31389); assay: Potency at histamine H1 receptor subtype, was tested on guinea pig right ileum
Sequence of Histamine H1 receptor (P31389 whole entry): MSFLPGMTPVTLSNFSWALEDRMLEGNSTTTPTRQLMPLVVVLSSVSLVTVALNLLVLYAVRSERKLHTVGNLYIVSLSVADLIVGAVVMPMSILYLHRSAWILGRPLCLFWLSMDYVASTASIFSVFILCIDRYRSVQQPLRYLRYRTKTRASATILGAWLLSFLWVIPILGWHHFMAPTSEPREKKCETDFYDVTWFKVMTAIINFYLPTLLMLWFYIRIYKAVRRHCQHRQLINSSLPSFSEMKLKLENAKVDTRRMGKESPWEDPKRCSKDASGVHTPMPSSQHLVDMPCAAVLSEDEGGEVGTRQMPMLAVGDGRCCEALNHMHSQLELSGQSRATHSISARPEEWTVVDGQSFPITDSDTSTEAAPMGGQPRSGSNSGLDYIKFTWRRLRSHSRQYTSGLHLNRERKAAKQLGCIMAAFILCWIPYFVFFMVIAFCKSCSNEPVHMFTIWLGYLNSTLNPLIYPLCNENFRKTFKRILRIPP

Sequence of Histamine H2 receptor (P47747 whole entry): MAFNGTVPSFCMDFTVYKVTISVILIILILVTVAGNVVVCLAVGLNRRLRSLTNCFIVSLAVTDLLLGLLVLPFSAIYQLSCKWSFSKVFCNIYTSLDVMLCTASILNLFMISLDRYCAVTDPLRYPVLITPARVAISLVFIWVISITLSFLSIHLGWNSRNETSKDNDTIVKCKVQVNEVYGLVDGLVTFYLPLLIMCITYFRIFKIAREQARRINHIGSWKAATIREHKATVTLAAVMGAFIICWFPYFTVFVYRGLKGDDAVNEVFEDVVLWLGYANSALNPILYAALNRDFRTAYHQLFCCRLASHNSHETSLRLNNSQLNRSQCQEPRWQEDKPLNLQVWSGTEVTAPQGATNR
Sequence of Histamine H3 receptor (Q9JI35 whole entry): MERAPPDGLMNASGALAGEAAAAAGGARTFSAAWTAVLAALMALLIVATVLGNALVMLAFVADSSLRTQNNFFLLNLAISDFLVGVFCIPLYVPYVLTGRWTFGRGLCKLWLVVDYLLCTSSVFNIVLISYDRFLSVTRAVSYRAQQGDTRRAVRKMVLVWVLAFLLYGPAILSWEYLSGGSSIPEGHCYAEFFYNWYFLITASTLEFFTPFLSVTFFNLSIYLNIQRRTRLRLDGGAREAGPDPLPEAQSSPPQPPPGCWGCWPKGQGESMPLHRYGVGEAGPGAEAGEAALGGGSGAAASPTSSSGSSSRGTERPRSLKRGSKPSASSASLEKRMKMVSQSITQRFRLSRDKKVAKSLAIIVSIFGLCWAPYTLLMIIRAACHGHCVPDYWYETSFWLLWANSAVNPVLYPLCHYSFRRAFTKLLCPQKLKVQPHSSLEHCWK

Kd (Histamine H3 receptor): 85.1 nM
Kd (Histamine H2 receptor): 14.1 µM
Kd (Histamine H1 receptor): 7.94 µM
SMILES: CC(N=O)c1ccc(OCc2ccc(CN3CCCCC3)cc2)cc1 (stereo not drawn) [1-[4-(4-Piperidin-1-ylmethyl-benzyloxy)-phenyl]-ethanone oxime]
